The values that follow come from patent US20110061129A1 (priority 2008, published 2011).

The subject of experiment [1] is mitochondrial translation in BY4743 and YKO strains. It is filed as cell-based, Saccharomyces cerevisiae.
In experiment [2] the test system is Saccharomyces cerevisiae homozygous diploid YKO strains and parental strain BY4743. It is filed as cell-based.
The test system of experiment [3] is total translation in BY4743 and YKO strains. The class given is cell-based, Saccharomyces cerevisiae.
The subject of experiment [4] is Saccharomyces cerevisiae homozygous diploid YKO strains and parental strain BY4743. It is filed as cell-based. The source holds these as a separate data set.

Take `C/C=C\C(=O)O[C@@H]1C[C@H]2O[C@@H]3C=C(C)C(=O)C[C@]3(C)[C@]1(C)[C@]21CO1` [T-cin, trichothecin]: the “effect on mitochondrial translation” value in experiment [1] was “able to inhibit mitochondrial translation”. In experiment [2], the “effect of the 2 μM screening concentration on growth (parental strain)” value is “non-lethal”. Besides, the “inhibition of the cytosolic translation rate of BY4743” value in experiment [3] was 80-90%. Moreover, the “effect of the screening level of toxin on the parental strain” value in experiment [4] is listed as “lethal”.
